Source: patent US12606508B2, “Cannabis extracts and uses thereof” (priority 2020, dated 2026)

Legend:
C57BL6/J mice [1] = test: Tetrad: bar test (catalepsy); format: in vivo; settings: mean±SEM
Experimental: (§1) Mice (n=4) were treated with Δ^9-THCB (10 and 20 mg/kg) or vehicle (0.9% saline and 0.05% DMSO) by intraperitoneal (i.p.) administration. Mice were evaluated for hypomotility (open field test), hypothermia (body temperature test), antinociceptive (hot plate test), and cataleptic effects (bar test), using the tetrad tests as described in the protocol by Metna-Laurent M. et al.^62 Statistical analysis was performed using the Kruskall-Wallis test and Dunn's post hoc tests.
Bar test. The bar used was a 40 cm long and 0.4 cm wide in diameter glass rod, which was horizontally elevated by 5 cm above the surface. Both forelimbs of the mouse were positioned on the bar and its hind legs on the floor of the cage, ensuring that the animal was not lying down on the floor. The chronometer was stopped when the mouse descended from the bar (i.e., when the two forepaws touched the floor) or after the 10 min cut-off time. Catalepsy was measured as the time duration each mouse held the bar by both his forelimbs (latency for moving in seconds).
(§2) Male C57BL6/J mice (7 weeks old; n=5) were treated with Δ^9-THCP (10, 5 and 2.5 mg/kg) or vehicle (1:1:18; ethanol:Kolliphor EL:0.9% saline) by i.p. administration. Mice were evaluated for hypomotility (open field test), hypothermia (body temperature), antinociceptive (hot plate test), and cataleptic (bar test) effects, using the tetrad tests^58. Statistical analysis was performed using the Kruskall-Wallis test and Dunn's post hoc tests.
Bar test. The bar test was used for the evaluation of catalepsy. Bar was a 40 cm in length and 0.4 cm in diameter glass rod, which was horizontally elevated by 5 cm above the surface. Both forelimbs of mice were positioned on the bar and its hind legs on the floor of the cage, ensuring that the mouse was not lying down on the floor. The chronometer was stopped when the mouse descends from the bar (i.e., when the two forepaws touched the floor) or when 10 min have elapsed (i.e., cut-off time). Catalepsy was measured as the time duration each mouse held the elevated bar by both his forelimbs (latency for moving in seconds).

human CB1 receptor = biological target: T1, human CB1 receptor (Homo sapiens, UniProt P21554); test: Radioligand binding assay at human CB1 receptor ([^3H]CP55940 displacement, Eurofins Discovery); settings: for Ki: Cheng Prusoff from IC50, [^3H]CP55940 radioligand, read-out: hCB1 Ki; for times more active than (−)-trans-Δ^9-THCV against CB1 receptor: comparator Δ^9-THCV (Ki 75.4 nM, literature); for times more active than (−)-trans-Δ^9-THC against CB1 receptor: comparator Δ^9-THC (Ki=40 nM, literature)
T1 construct: Eurofins Discovery (contract assay)
T1 sequence (P21554 whole entry): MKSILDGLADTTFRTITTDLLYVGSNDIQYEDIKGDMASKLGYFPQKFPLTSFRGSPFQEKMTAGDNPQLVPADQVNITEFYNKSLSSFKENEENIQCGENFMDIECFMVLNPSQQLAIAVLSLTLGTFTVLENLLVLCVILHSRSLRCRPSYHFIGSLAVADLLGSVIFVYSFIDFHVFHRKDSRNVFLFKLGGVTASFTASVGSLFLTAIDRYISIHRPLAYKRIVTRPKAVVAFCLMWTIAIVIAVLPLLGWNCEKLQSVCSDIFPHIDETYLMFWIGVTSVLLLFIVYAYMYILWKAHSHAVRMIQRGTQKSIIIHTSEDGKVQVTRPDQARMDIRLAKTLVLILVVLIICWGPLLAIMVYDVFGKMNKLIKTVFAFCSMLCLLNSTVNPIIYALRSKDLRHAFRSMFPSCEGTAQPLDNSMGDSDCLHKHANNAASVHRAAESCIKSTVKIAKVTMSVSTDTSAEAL
Experimental: 2.2.4 Binding affinity at human CB1 and CB2 receptors. The binding affinity of (−)-trans-Δ^9-THCB against purified human CB1 and CB2 receptors was determined in a radioligand binding assay. The capability of the ligand to displace radiolabeled [^3H] […] Binding at CB1 and CB2 Receptors. The binding affinity of (−)-trans-Δ^9-THCB against human CB1 and CB2 receptors was determined in a radioligand binding assay performed by Eurofins Discovery. The compound was tested at ten concentrations, ranging from 1 nM to 30 μM, in duplicate. The compound binding was calculated as a % inhibition of the binding of a radioactively labeled ligand specific for each target. […] The results were expressed as a percent inhibition of control specific binding obtained in the presence of the tested compounds using eq. 1.
The IC50 values (concentration causing a half-maximal inhibition of control specific binding) were determined by non-linear regression analysis of the competition curves generated with mean replicate values (eq. 2)^55.
Where Y is the specific binding, A is the left asymptote of the curve, D is the right asymptote f the curve, C is the compound concentration, C50 is the IC50 value and nH is the slope factor. […] The inhibition constants (Ki) were calculated using the Cheng Prusoff equation: […]
3.1.4 Binding affinity at human CB1 and CB2 receptors. […] The binding affinity of (−)-trans-Δ^9-THCP against human CB1 and CB2 receptors was assessed by Eurofins Discovery using a radioligand binding assay. […] Eq. 1 was employed to calculate the percent inhibition of control specific binding obtained in the presence of the tested compounds.
A non-linear regression analysis of the competition curves generated with mean replicate values (eq. 2) was used to calculate the IC50 values (concentration causing a half-maximal inhibition of control specific binding)^51.
Where Y is the specific binding, A is the left asymptote of the curve, D is the right asymptote f the curve, C is the compound concentration, C50 is the IC50 value and nH is the slope factor. […] The inhibition constants (Ki) were determined using the Cheng Prusoff equation (eq. 3):
[formula] • where L is the concentration of the radioligand, and KD is the affinity of the radioligand for the receptor.

C57BL6/J mice [2] = test: Tetrad: body (rectal) temperature test; format: in vivo; settings: mean±SEM; for change in rectal temperature: 50 min after administration vs basal, n=4, vehicle 0.53; for change in body temperature: difference to basal temperature, n=5, vehicle 0.40
Experimental: as §1
Body temperature test. A probe was gently inserted for 1 cm into the mouse rectum after the animal had been immobilized. The probe was washed and cleaned with 70% ethanol and the dried with a paper towel. The body temperature was measured after stabilization of the value in ° C. in basal conditions and at 50 minutes after drug or vehicle administration.
as §2
Body temperature. The mouse was immobilized and the probe gently inserted for 1 cm into the rectum until stabilization of temperature. Between each mouse the probe was cleaned with 70% ethanol and dried with paper towel.

Compound	bar test: latency for moving from the catalepsy bar (C57BL6/J mice [1]; Δ^9-THCB 10 mg/kg i.p., n=4, vehicle 3.50)	bar test: latency for moving from the catalepsy bar (C57BL6/J mice [1]; Δ^9-THCB 20 mg/kg i.p., n=4, vehicle 3.50)	Ki (human CB1 receptor)	IC50 (human CB1 receptor; displacement of [^3H]CP55940, ten concentrations 1 nM to 30 μM, duplicate, SD within ±10%, read-out: hCB1 IC50)	times more active than (−)-trans-Δ^9-THCV against CB1 receptor (human CB1 receptor; ratio of Ki)	change in rectal temperature (C57BL6/J mice [2]; Δ^9-THCB 10 mg/kg i.p.)	change in rectal temperature (C57BL6/J mice [2]; Δ^9-THCB 20 mg/kg i.p.)	bar test: latency for moving from the catalepsy bar (C57BL6/J mice [1]; Δ^9-THCP 2.5 mg/kg i.p., 10 min cut-off, n=5, vehicle 15.20)	bar test: latency for moving from the catalepsy bar (C57BL6/J mice [1]; Δ^9-THCP 5 mg/kg i.p., 10 min cut-off, n=5, vehicle 15.20)	bar test: latency for moving from the catalepsy bar (C57BL6/J mice [1]; Δ^9-THCP 10 mg/kg i.p., 10 min cut-off, n=5, vehicle 15.20)	binding affinity to CB1 among the compounds (in words) (human CB1 receptor; comparison of alkyl chain homologues)	times more active than (−)-trans-Δ^9-THC against CB1 receptor (human CB1 receptor; ratio of Ki)	times more active than (−)-trans-Δ^9-THC against CB1 receptor (human CB1 receptor; ratio of Ki, listed as (−)-trans-Δ^9-THCP)	times more active than (−)-trans-Δ^9-THCB against CB1 receptor (human CB1 receptor; ratio of Ki, comparator Δ^9-THCB (Ki 15 nM))	change in body temperature (C57BL6/J mice [2]; Δ^9-THCP 2.5 mg/kg i.p.)	change in body temperature (C57BL6/J mice [2]; Δ^9-THCP 5 mg/kg i.p.)	change in body temperature (C57BL6/J mice [2]; Δ^9-THCP 10 mg/kg i.p.)
CCCCc1cc(O)c2c(c1)OC(C)(C)[C@@H]1CCC(C)=C[C@@H]21 [Δ^9-THCB, (6aR,10aR)-3-butyl-6,6,9-trimethyl-6a,7,8,10a-tetrahydro-6H-benzo[c]chromen-1-ol]	3.0 s	13.0 s	15 nM	28 nM	five times more active	−0.28 °C	0.40 °C	–	–	–	–	–	–	–	–	–	–
CCCCCCCc1cc(O)c2c(c1)OC(C)(C)[C@@H]1CCC(C)=C[C@@H]21 [Δ^9-THCP, (6aR,10aR)-3-heptyl-6,6,9-trimethyl-6a,7,8,10a-tetrahydro-6H-benzo[c]chromen-1-ol]	–	–	1.2 nM	–	63 times	–	–	346.1 s	493.4 s	484.5 s	highest binding affinity to CB1	more than thirty-fold higher	33 times	13 times	−4.12 °C	−5.28 °C	−7.10 °C
